In one assay the target is T1, αvβ3 protein (Homo sapiens, UniProt P05106+P06756).
T1 construct: purchased CHEMICON CORP; CC1019
As to the kind of experiment: αvβ3 protein binding test (fluorescence polarization, FITC-Echistatin). Conditions: inhibition of binding of Echistatin and αvβ3 protein, 37° C., 30 minutes. How it is done:
The method of Davis et al. (Proc. Natl. Acad. Sci., 96(16), 9269 (1999)) was partially modified and carried out.
By using Echistatin (available from SIGMA), Fluorescein Amine Labeling Kit for Peptides and Proteins (available from PanVera Corp., P2058) and Gel Filtration of Proteins Kit (P2101, PanVera Corp.), fluorescein isothiocyanate (hereinafter abbreviated to as FITC)-Echistatin was prepared. Then, with 137 μL of Tris-buffer (10 mM Tris base, 1 mM CaCl2, 1 mM MgCl2, 1 mM MnCl2, pH 7.4) were mixed 1 μL of 200 nM FITC-Echistatin (final concentration: 1 nM) and 2 μL of […] bovine serum albumin (hereinafter abbreviated to as BSA; available from SIGMA) (final concentration: 1 mg/mL). To the mixture was added 10 μL of the test compound, then, 50 μL of 4 nM αvβ3 (CC1019, available from CHEMICON CORP.) (final concentration: 1 nM) was added to the mixture and the resulting mixture was incubated at 37° C. for 30 minutes. By measuring fluorescence polarization degrees with BEACON2000 (available from PanVera Corp.), binding of Echistatin and αvβ3 protein was evaluated. The concentration (IC50 value) of the test compound necessary for inhibiting 50% of binding of Echistatin and αvβ3 protein was calculated by using EXSAS (available from Arm Systecs Co. Ltd.).

Assay [1] deals with HUVEC (human umbilical vein endothelial cell), αvβ3 expressing cell. The assay is described as follows: αvβ3 expressing cell adhesion test (HUVEC on human vitronectin). Format: cell-based. Conditions: HUVEC binding to human vitronectin, 50% human serum-containing DMEM, 1 hour; read-out: αvβ3 developed cell adhesion inhibition IC50 value. How it is done: The method of Juliano, et al. (Exp. Cell Res., 225(1), 132 (1996)) was partially modified and carried out.
Human vitronectin (available from CHEMICON CORP.) was adjusted to 10 μg/mL with phosphate buffered saline (hereinafter abbreviated to as PBS). This was apportioned on a 96-well plate (MS9586F, available from SUMIRON Co., Ltd.) with 100 μL/well, subjected to coating at room temperature for 1 hour, then, the coating solution was removed and dried. Thereafter, blocking treatment was carried out by 1.0% BSA dissolved in Dulbecco's Modified Eagle's Medium (hereinafter abbreviated to as DMEM) for 1 hour, followed by washing with PBS, and the obtained material was used for the adhesion test as a coating plate. HUVEC (human umbilical vein endothelial cell) (available from Clonetics Corp.) cultured in an endocerial cell basal medium EBM2 (available from Clonetics Corp.) containing growth factor EGM2 (available from Clonetics Corp.) and 10% fatal bovin serum (hereinafter abbreviated to as FBS) was peeled by using trypsin-ethylenediamine tetraacetic acid, washed by using PBS and recovered, and then, suspended in 50% human serum-containing DMEM to prepare a cell solution of HUVEC. To human vitronectin coating plates was added a 50% human serum-containing DMEM solution containing the HUVEC cell solution and the test compound each 50 μL/plate to start the adhesion test. […]

The next assay has as its target T2, αvβ5 protein (Homo sapiens, UniProt P06756+P18084).
T2 construct: purchased CHEMICON Corp. CC1023
As to the kind of experiment: αvβ5 protein binding test (Biotin-Echistatin plate assay). Conditions: inhibition of binding between Echistatin and αvβ5 protein. How it is done: The method of C. P. Carron et al. (J. Endocrinology, 165, 587 (2000)) was partially modified and carried out.
By using Echistatin (available from Bachem) and EZ-Link NHS-Biotin Reagent (available from Pierce Biotechnology Inc.), Biotin-Echistatin was prepared. Then, αvβ5 (CC1023, available from CHEMICON Corp.) was mixed with a Tris buffer solution (20 mM tris(hydroxymethyl)aminomethane, 150 mM NaCl, 1 mM CaCl2, 1 mM MgCl2, 1 mM MnCl2, pH 7.5), the mixture was added to Nunc immunoplate Maxisoap (available from Nalge Nunc Int. Co.), and incubated at room temperature overnight. The solution was removed, a Block Ace (available from Dai Nippon Sumitomo Pharma Co., Ltd.) solution was added to the residue and the mixture was incubated at room temperature for 2 hours, then, the solution was again removed and the residue was washed with 0.05% Tween-PBS. Next, a Tris buffer solution containing 10 mg/mL of bovine serum albumin (hereinafter abbreviated to as BSA; available from SIGMA) and the test compound was added to the mixture, and the resulting mixture was incubated at room temperature for 30 minutes. […] An absorbance at 495 nm was measured by Microplate reader (Spectra Fluor, available from TECAN Group, Ltd.) to evaluate binding of Echistatin and αvβ5 protein. […]

Structures can show the parent of a compound that is named as a salt.

T1 sequence (P06756 31-889 limits assumed): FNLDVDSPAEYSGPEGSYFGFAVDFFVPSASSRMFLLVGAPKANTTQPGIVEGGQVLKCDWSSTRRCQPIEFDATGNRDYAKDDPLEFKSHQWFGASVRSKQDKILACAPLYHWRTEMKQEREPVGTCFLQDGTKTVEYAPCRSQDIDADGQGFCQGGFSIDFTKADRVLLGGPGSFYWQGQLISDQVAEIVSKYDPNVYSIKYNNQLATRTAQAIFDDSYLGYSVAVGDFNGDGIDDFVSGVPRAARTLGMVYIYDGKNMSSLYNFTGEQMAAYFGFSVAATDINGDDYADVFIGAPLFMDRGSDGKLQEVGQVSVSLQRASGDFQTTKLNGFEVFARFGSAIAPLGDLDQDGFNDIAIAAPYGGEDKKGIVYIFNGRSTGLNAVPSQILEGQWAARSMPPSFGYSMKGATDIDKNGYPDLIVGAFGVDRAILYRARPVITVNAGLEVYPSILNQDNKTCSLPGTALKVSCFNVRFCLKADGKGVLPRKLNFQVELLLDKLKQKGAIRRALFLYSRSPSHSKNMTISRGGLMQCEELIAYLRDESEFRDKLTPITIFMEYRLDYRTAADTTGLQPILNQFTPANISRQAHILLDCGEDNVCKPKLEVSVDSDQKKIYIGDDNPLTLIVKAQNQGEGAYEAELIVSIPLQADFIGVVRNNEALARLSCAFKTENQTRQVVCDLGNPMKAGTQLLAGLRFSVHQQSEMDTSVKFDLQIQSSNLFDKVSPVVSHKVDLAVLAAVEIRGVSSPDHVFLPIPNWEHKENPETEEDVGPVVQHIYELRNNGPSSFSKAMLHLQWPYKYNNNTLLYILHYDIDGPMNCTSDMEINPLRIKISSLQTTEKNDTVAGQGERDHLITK
T1 sequence (P06756 891-1048 partner limits assumed): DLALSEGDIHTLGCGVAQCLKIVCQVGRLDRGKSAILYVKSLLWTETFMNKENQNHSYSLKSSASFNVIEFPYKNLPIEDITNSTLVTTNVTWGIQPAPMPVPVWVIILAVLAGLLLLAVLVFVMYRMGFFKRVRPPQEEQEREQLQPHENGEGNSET
T1 sequence (P05106 27-788): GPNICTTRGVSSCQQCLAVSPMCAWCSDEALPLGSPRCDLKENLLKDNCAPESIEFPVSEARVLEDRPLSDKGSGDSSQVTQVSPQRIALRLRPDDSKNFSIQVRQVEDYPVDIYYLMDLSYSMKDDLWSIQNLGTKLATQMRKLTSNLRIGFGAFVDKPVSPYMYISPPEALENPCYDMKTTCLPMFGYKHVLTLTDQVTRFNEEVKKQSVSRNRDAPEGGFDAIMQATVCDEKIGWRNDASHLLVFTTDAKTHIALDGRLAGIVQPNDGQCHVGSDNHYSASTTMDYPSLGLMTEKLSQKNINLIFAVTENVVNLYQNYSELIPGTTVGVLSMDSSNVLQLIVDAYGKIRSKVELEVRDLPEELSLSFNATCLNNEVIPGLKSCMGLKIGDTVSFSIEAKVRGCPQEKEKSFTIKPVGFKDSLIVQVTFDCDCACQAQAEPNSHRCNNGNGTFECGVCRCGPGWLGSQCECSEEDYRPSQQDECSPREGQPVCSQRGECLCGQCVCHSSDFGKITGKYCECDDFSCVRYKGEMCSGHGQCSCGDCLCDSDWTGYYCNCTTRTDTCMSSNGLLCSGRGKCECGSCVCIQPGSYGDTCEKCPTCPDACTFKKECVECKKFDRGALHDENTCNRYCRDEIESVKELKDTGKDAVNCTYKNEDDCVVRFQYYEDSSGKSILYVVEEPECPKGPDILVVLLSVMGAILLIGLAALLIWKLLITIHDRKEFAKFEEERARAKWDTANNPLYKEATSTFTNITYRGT
T2 sequence (P06756 31-889 limits assumed): as the sequence (P06756 31-889 limits assumed) above
T2 sequence (P06756 891-1048 partner limits assumed): as the sequence (P06756 891-1048 partner limits assumed) above
T2 sequence (P18084 24-799): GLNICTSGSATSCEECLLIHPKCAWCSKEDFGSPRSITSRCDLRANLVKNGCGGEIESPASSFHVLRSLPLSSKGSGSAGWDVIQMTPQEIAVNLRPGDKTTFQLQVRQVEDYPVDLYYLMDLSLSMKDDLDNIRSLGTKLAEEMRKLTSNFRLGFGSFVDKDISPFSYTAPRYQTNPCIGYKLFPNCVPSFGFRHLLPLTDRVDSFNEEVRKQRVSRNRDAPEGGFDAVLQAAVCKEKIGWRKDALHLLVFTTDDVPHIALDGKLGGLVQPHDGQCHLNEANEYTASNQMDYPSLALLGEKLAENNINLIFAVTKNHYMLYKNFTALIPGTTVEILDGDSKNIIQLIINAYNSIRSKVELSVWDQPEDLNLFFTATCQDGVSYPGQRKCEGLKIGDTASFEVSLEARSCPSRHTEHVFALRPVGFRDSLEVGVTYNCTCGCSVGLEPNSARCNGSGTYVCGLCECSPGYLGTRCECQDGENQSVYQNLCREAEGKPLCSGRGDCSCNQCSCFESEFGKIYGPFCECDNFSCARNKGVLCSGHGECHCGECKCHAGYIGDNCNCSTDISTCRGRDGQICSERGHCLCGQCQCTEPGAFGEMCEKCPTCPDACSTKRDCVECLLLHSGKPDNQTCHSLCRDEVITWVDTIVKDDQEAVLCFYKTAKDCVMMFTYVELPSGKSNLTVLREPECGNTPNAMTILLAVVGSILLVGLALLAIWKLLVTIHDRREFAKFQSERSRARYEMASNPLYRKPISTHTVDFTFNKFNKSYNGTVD

As usually defined, the IC50 is the concentration needed to halve the response being measured. `O=C(O)CC1Cc2ccc(OCCc3cn4c(n3)NCCN4)cc2CN(CC(F)(F)F)C1=O` (stereo not drawn) [Example 3, 3-Oxo-8-[2-(1,2,3,4-tetrahydroimidazo[1,2-b][1,2,4]triazin-6-yl)ethoxy]-2-(2,2,2-trifluoroethyl)-2,3,4,5-tetrahydro-1H-2-benzazepin-4-acetate trifluoroacetate]: the IC50 on αvβ3 protein was 1.3 nM. As for `CNc1cccc(CCOc2ccc3c(c2)CN(CC(F)(F)F)C(=O)C(CC(=O)O)C3)n1` (racemic) [Compund A, 8-[2-[6-(methylamino)pyridin-2-yl]-1-ethoxy]-3-oxo-2-(2,2,2-trifluoroethyl)-2,3,4,5-tetrahydro-1H-2-benzazepin-4-acetic acid, reference compound], the values for the IC50 (at αvβ3 protein; in assay [1]) were 7.1 nM and 161 nM, respectively. Take `O=C(O)CC1Cc2ccc(OCCc3cn4c(n3)NCCC4)cc2CN(CC(F)(F)F)C1=O` (stereo not drawn) [Example 2, 3-oxo-8-[2-(5,6,7,8-tetrahydroimidazo[1,2-a]pyrimidin-2-yl)ethoxy]-2-(2,2,2-trifluoroethyl)-2,3,4,5-tetrahydro-1H-2-benzazepin-4-acetate trifluoroacetate]: the results for the IC50 (on αvβ3 protein; in assay [1]) were 1.2 nM and 61 nM, respectively. For `O=C(O)C[C@@H]1Cc2ccc(OCCc3cn4c(n3)NCCC4)cc2CN(CC(F)(F)F)C1=O` [Example 4, (4S)-3-oxo-8-[2-(5,6,7,8-tetrahydroimidazo[1,2-a]pyrimidin-2-yl)ethoxy]-2-(2,2,2-trifluoroethyl)-2,3,4,5-tetrahydro-1H-2-benzazepin-4-acetic acid], the IC50 came to 0.6 nM on αvβ3 protein and 0.2 nM on αvβ5 protein. Taken in the same sequence, the figures for `O=C(O)C[C@@H]1Cc2ccc(OCCCNc3ccccn3)cc2CN(CC(F)(F)F)C1=O` [Compund B, (4S)-3-oxo-8-[3-(pyridin-2-ylamino)-1-propyloxy]-2-(2,2,2-trifluoroethyl)-2,3,4,5-tetrahydro-1H-2-benzazepin-4-acetic acid, reference compound] were 2.6 nM and 1.3 nM.

For the origin of these results see US20120095215A1, “MEDICAL COMPOSITION FOR TREATMENT OR PROPHYLAXIS OF EYE DISEASES” (UBE INDUSTRIES, LTD., priority 2009, published 2012).
